Experimental findings from patent US20240360153A1 (Regeneron Pharmaceuticals, Inc., priority 2023, published 2024) are described below.

A short description of data set [1]: In vitro microsomal metabolic stability, CD-1 mouse liver microsomes. It counts as in vitro ADME. Particulars: for CLint scaled at 1 µM / microsomal CLint at 1 µM: CD-1, mouse, mouse liver microsomes, pH 7.2; for half-life at 1 µM: CD-1, pH 7.2, 0.5 mg/ml protein, NADPH; for half-life at 1 µM / Remaining (T = 60 min) / Remaining (T = NCF60 min): Mouse liver microsomes; for Remaining (T = 60 min): with NADPH; for Remaining (T = NCF60 min): without NADPH regenerating system; for Remaining (T = 60 min) / Remaining (T = NCF60 min): 60 min. In outline: (§1)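 Compounds at 1 μM incubated at 37° C with pooled CD-1 mouse or human liver microsomes (0.5 mg/mL protein) plus NADPH regenerating system in 50 mM potassium phosphate, pH 7.2, 3.3 mM MgCl2; sampled at 0–60 min, 60-min no-NADPH control. Parent loss by LC/MS/MS analyte/IS peak-area ratio, n=1.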
For orientation: Liver microsomes are vesicles of endoplasmic reticulum, rich in cytochrome P450 enzymes.

Data set [2] in a line: In vitro microsomal metabolic stability, human liver microsomes. It is filed as in vitro ADME. Particulars: for Remaining (T = 60 min) / Remaining (T = NCF60 min) / half-life at 1 µM: Human liver microsomes; for Remaining (T = 60 min): with NADPH; for Remaining (T = NCF60 min): without NADPH regenerating system; for Remaining (T = 60 min) / Remaining (T = NCF60 min): 60 min; for CLint scaled at 1 µM / microsomal CLint at 1 µM: human, human liver microsomes; for CLint scaled at 1 µM / microsomal CLint at 1 µM / half-life at 1 µM: pH 7.2; for half-life at 1 µM: 0.5 mg/ml protein, NADPH. Summed up:
as §1

Consider `COCCN(c1ccccc1)C1C[C@@H]2CC[C@@H](C)[C@@](O)(O2)C(=O)C(=O)N2CCCC[C@H]2C(=O)OC([C@H](C)CC2CC[C@@H](O)C(OC)C2)CC[C@H](C)/C=C(\C)C(O)C(OC)C(=O)[C@H](C)C[C@H](C)/C=C/C=C/C=C/1C` (stereo partly drawn) [Compound 69, (3S,6S,7E,9R,10R,12R,14S,15E,17E,19E,23S,26R,27R,34aS)-9,27-dihydroxy-3-((R)-1-((1S,3R,4R)-4-hydroxy-3-methoxycyclohexyl)propan-2-yl)-10-methoxy-21-((2-methoxyethyl)(phenyl)amino)-6,8,12,14,20,26-hexamethyl-5,6,9,10,12,13,14,21,22,23,24,25,26,27,32,33,34,34a-octadecahydro-3H-23,27-epoxypyrido[2,1-c][1]oxa[4]azacyclohentriacontine-1,11,28,29(4H,31H)-tetraone], for which, in data set [1], the CLint scaled (in general, a measure of how fast metabolising enzymes remove a compound, apart from limits set by blood flow) at 1 µM was determined as 11.1 mL/min/kg; the microsomal CLint – broadly, the capacity of the preparation to metabolise the compound, expressed as a volume cleared per time – at 1 µM came out at 2.81 µL/min/mg; the half-life (as a rule, the time in which the quantity being followed falls by half) at 1 µM was determined as 8.2 h; the “Remaining (T = 60 min)” value was 113%. For the same molecule, in data set [1], the “Remaining (T = NCF60 min)” value amounted to 99.6%. Further, in data set [2], the “Remaining (T = 60 min)” value worked out at 63.3%, the “Remaining (T = NCF60 min)” value is recorded as 115%, the CLint scaled at 1 µM worked out at 25.5 mL/min/kg and the intrinsic metabolic clearance (microsomal CLint) at 1 µM came to 28.3 µL/min/mg. In addition, the half-life at 1 µM in data set [2] came to 0.817 h.
`CO[C@H]1C[C@@H]2CC[C@@H](C)[C@@](O)(O2)C(=O)C(=O)N2CCCC[C@H]2C(=O)O[C@H]([C@H](C)C[C@@H]2CC[C@@H](OCCO)[C@H](OC)C2)CC(=O)[C@H](C)/C=C(\C)[C@@H](O)[C@@H](OC)C(=O)[C@H](C)C[C@H](C)/C=C/C=C/C=C/1C` [RAD001, everolimus, reference compound]: in data set [1], the CLint scaled at 1 µM came to 76.9 mL/min/kg, the microsomal CLint at 1 µM stood at 19.4 µL/min/mg, the half-life at 1 µM came out at 1.19 h and the “Remaining (T = 60 min)” value was 56%. Besides, in data set [1], the “Remaining (T = NCF60 min)” value is 126%. Moreover, in data set [2], the “Remaining (T = 60 min)” value was 2.10%, the “Remaining (T = NCF60 min)” value is 120%, the CLint scaled at 1 µM came out at 112 mL/min/kg and the microsomal CLint at 1 µM amounted to 124 µL/min/mg. Moreover, the half-life at 1 µM in data set [2] came to 0.185 h.
